How the values were obtained:
ASPC1 = assay: Cell proliferation assay (Sulforhodamine B), IC50; type: cell-based; details: Homo sapiens; ASPC1, 96 hours of treatment; read-out: IC50 96 h mean ± SD
Procedure: (§1) Cell proliferation was measured in 96-well plates in cells untreated and treated with described drugs as single agent or in combination. […] Drugs combination studies were based on concentration-effect curves generated as a plot of the fraction of unaffected (surviving) cells versus drug concentration after 96 h of treatment. Synergism, additivity, and antagonism were quantified after an evaluation of the Combination Index (CI), which was calculated by the Chou-Talalay equation with CalcuSyn software (Biosoft, Cambridge, UK-Chou T C. Cancer Res. 2010 Jan. 15; 70(2):440-6.), as described elsewhere (Terranova-Barberio M, J Exp Clin Cancer Res. 2017; 36(1):177); Bruzzese et al, J Cell Physiol 2011, 226(9):2378-2390). […] The DRI determined the magnitude of dose reduction allowed for each drug when given in combination, compared with the concentration of a single agent that is needed to achieve the same effect. Clonogenic assay Colony formation assay is an in vitro cell survival assay based on the ability of a single cell to grow into a colony. The PANC1, ASPC1 and PANC28 cell lines were plated in 96 well plates with 50 cell/well while the BxPC3 cell line with 100 cell/well. The day after the cells were treated with VPA, SIM alone (at dose of IC10, IC25 and IC50) and in combination. The cells were grown for 10 days. The formed colonies were fixed with TCA (50%) and measured using a spectrophotometric dye incorporation assay (Sulforhodamine B or crystal violet). Microtissue formation assay Pancreatic cancer cell lines PANC1, ASPC1, PANC28, BxPC3 and MiaPaca were cultured as microtissues by the ultra-low attachment (ULA) System (PerkinElmer). The cancer cells were marked using a green fluorescent probe-cell traker (Thermo Fisher) while fibroblast (only for preliminary experiment to evaluate tissues formation) with red probe (PKH-26 Sigma Aldrich) according to manufacture instruction. […] 3D microtissues were maintained in the incubator and photographed by Opera Phenix microscope (Perkin Elmer) air objective magnification 5× and/or scored by Cell Titer-Glo® 3D Cell Viability Assay (Promega) by using a Multimode Reader Cytation 5 (Biotek).

PANC1 = assay: Cell proliferation assay (Sulforhodamine B), IC50; type: cell-based; details: Homo sapiens, PANC-1; PANC1, 96 hours of treatment; read-out: IC50 96 h mean ± SD
Procedure: as §1

BxPC3 = assay: Cell proliferation assay (Sulforhodamine B), IC50; type: cell-based; details: Homo sapiens, BXPC-3; BxPC3, 96 hours of treatment; read-out: IC50 96 h mean ± SD
Procedure: as §1, with “The day after the cells were treated with VPA, SIM alone (at dose of IC10, IC25 and IC50) and in combination.” left out

COLO357 = assay: Cell proliferation assay (Sulforhodamine B), IC50; type: cell-based; details: Homo sapiens; COLO357, 96 hours of treatment; read-out: IC50 96 h mean ± SD
Procedure: as §1, with “The day after the cells were treated with VPA, SIM alone (at dose of IC10, IC25 and IC50) and in combination.” left out

L3.6pl = assay: Cell proliferation assay (Sulforhodamine B), IC50; type: cell-based; details: Homo sapiens, 96 hours of treatment, read-out: IC50 96 h mean ± SD
Procedure: as §1, with “The day after the cells were treated with VPA, SIM alone (at dose of IC10, IC25 and IC50) and in combination.” left out

MDA-PANC28 = assay: Cell proliferation assay (Sulforhodamine B), IC50; type: cell-based; details: Homo sapiens, MDA-Panc-28; MDA-PANC28, 96 hours of treatment; read-out: IC50 96 h mean ± SD
Procedure: as §1, with “The day after the cells were treated with VPA, SIM alone (at dose of IC10, IC25 and IC50) and in combination.” left out

MIAPACA = assay: Cell proliferation assay (Sulforhodamine B), IC50; type: cell-based; details: Homo sapiens, MIA PaCa-2, 96 hours of treatment, read-out: IC50 96 h mean ± SD
Procedure: as §1, with “The day after the cells were treated with VPA, SIM alone (at dose of IC10, IC25 and IC50) and in combination.” left out

KPC ID11 = assay: Cell proliferation assay (Sulforhodamine B), IC50; type: cell-based, C57/BL6 mice; details: Mus musculus; KPC ID11, 96 hours of treatment; read-out: IC50 96 h mean ± SD
Procedure: (§2) FIG. 1. Pancreatic Cancer Cell lines features. A. Basal mRNA basal levels of EMT markers Vimentin and E-Cadherin in PDAC cell lines L3.6pl, BxPC3, COLO357, PANC28, PANC1, ASPC1 and MIAPACA2, in normal pancreatic cells HPDE cells, as well as in 2 established PDX-derived primary cells KPC ID11 and KPC ID95 were determined by qRT-PCR. […] Cells were grown for 48 h before preparation of cell lysates. Proteins were separated by SDS-PAGE and transferred to PVDF membranes using standard protocols. The membranes were probed with specific antibodies and Ponceau Red as total protein loading controls. Data represents representative results of at least three independent experiments.
as §1, with “The day after the cells were treated with VPA, SIM alone (at dose of IC10, IC25 and IC50) and in combination.” left out

KPC ID95 = assay: Cell proliferation assay (Sulforhodamine B), IC50; type: cell-based, C57/BL6 mice; details: Mus musculus; KPC ID95, 96 hours of treatment; read-out: IC50 96 h mean ± SD
Procedure: as §2
as §1, with “The day after the cells were treated with VPA, SIM alone (at dose of IC10, IC25 and IC50) and in combination.” left out

[1] = test system: PANC1, ASPC1, PANC28 and BxPC3 cells; assay: Colony formation (clonogenic) assay; type: cell-based, human; details: high (IC25) and low (IC10) doses; all cell lines
Procedure: FIG. 3. VPA plus SIMVASTATIN antiproliferative and pro-apoptotic effects in PDAC cell lines. A. Synergistic inhibition of colony formation by the VPA/SIM in ASPC1, PANC28, PANC1 and BxPC3 cell lines. […] Upper panel: representative imagines of one experiment; in the lower panel: the bar graphs represent the values of absorbance of colonies after SRB colorimetric assay. Statistical significance was determined by a 2 tailed, unpaired Student's T test (*P<0.05;** P<0.01). B.-C. Synergistic inhibition of microtissues formation by the VPA and SIM alone and in combination. […] The graphics represent the number of viable cells in 3D cell culture based on quantitation of the ATP content. […] Statistical significance was determined by a 2 tailed, unpaired Student's T test (*P<0.05;** P<0.01) (C). […] Antiproliferative effect was assessed in all PDAC cell lines by sulforhodamine B colorimetric assay (see Methods) and expressed as percentage of control. B Apoptosis was evaluated by Caspase 3/7 activity assay, in PANC1, PANC28 and ASPC1 cells untreated or treated for 24 h with VPA/SIM and/or GEM/TAX at the low doses (VPA 0.5 mM, SIM 0,625 μM, GEM 25 nM and TAX 1.25 nM) and evaluated by luminescence assay. […] Expression of cleaved PARP in PANC1, PANC28 and ASPC1 cell lines untreated or treated with VPA/SIM and/or GEM/TAX for 24 h was evaluated by western blotting. βActin was used as loading control. […]

Row | SMILES | IC50 (ASPC1) | IC50 (PANC1) | IC50 (BxPC3) | IC50 (COLO357) | IC50 (L3.6pl) | IC50 (MDA-PANC28) | IC50 (MIAPACA) | IC50 (KPC ID11) | IC50 (KPC ID95) | colonies formation [1]
1 | CC(C)c1c(C(=O)Nc2ccccc2)c(-c2ccccc2)c(-c2ccc(F)cc2)n1CC[C@@H](O)C[C@@H](O)CC(=O)O [ATOR, Atorvastatin] | 4.55 ± 0.07 µM | 14.4 ± 0.56 µM | 16.9 ± 4.3 µM | 12 ± 2.2 µM | 11 ± 3.2 µM | 3.25 ± 0.35 µM | 1.8 ± 0.06 µM |  |  | 
2 | CC[C@H](C)C(=O)O[C@H]1C[C@@H](C)C=C2C=C[C@H](C)[C@H](CC[C@@H]3C[C@@H](O)CC(=O)O3)[C@H]21 [LOV, Lovastatin] | 8.83 ± 2.4 µM | 28.2 ± 5.9 µM | 18.7 ± 6.95 µM | 8 ± 0.5 µM | 12.1 ± 0.33 µM | 4.05 ± 0.55 µM | 3 ± 0.4 µM |  |  | 
3 | Nc1ccccc1NC(=O)c1ccc(CNC(=O)OCc2cccnc2)cc1 [MS-275] | 2.2 ± 0.14 µM | 2.65 ± 0.07 µM | 0.9 ± 0.05 µM | > 8 µM | > 8 µM | 2.1 ± 0.14 µM | 0.02 µM | > 8 µM | > 8 µM | 
4 | Cc1[nH]c2ccccc2c1CCNCc1ccc(/C=C/C(=O)NO)cc1 [PAN, 2-(E)-N-hydroxy-3-[4 [[[2-(2-methyl-1H-indol-3-yl)ethyl]amino]methyl]phenyl]-2-propenamide] | 0.0156 ± 0.00177 µM | 0.0137 ± 0.00275 µM | 0.0243 ± 0.00503 µM | 0.065 ± 0.00703 µM | > 0.16 µM | 0.0224 ± 0.00056 µM | 0.016 ± 0.0014 µM | > 0.16 µM | > 0.16 µM | 
5 | CCC(C)(C)C(=O)O[C@H]1C[C@@H](C)C=C2C=C[C@H](C)[C@H](CC[C@@H]3C[C@@H](O)CC(=O)O3)[C@H]21 [SIM, Simvastatin] | 1.5 ± 0.28 µM | 9.2 ± 0.9 µM | 11.2 ± 2.59 µM | 6 ± 0.5 µM | 5.1 ± 0.8 µM | 1.3 ± 0.07 µM | 2 ± 0.21 µM | 2.3 ± 0.48 µM | 1.05 ± 0.06 µM | 
6 | O=C(CCCCCCC(=O)Nc1ccccc1)NO [VOR, Vorinostat] | 0.74 ± 0.04 µM | 0.82 ± 0.1 µM |  |  |  |  |  |  |  | 
7 | CCCC(CCC)C(=O)O [VPA, 2-propylpentanoic acid] | 3500 ± 70 µM | 4500 ± 70 µM | 1820 ± 190 µM | 1000 ± 100 µM | 2200 ± 120 µM | 2800 ± 560 µM | 750 ± 50 µM | 1800 ± 40 µM | 1600 ± 380 µM | inhibited colonies formation
